Experimental data reported in PubChem BioAssay (NCI).
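Following 48 hours of exposure in 96-well plates, responses at five concentrations were used to interpolate endpoints linearly. GI50 = concentration required for 50% inhibition of growth. TGI: concentration producing complete growth inhibition.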

Columns and labels:
Test in all cases: NCI anticancer screen, dose series, 48 h
DU-145 prostate = system: DU-145 prostate
HCC-2998 colon = system: HCC-2998 colon
U251 CNS = system: U251 CNS
786-0 renal = system: 786-0 renal
SF-268 CNS = system: SF-268 CNS
SF-295 CNS = system: SF-295 CNS
EKVX NSCLC = system: EKVX NSCLC
NCI-H460 lung = system: NCI-H460 lung
T-47D breast = system: T-47D breast
KM12 colon = system: KM12 colon
SK-OV-3 ovarian = system: SK-OV-3 ovarian
CCRF-CEM leukemia = system: CCRF-CEM leukemia
PC-3 prostate = system: PC-3 prostate
UACC-62 melanoma = system: UACC-62 melanoma
HS 578T breast = system: HS 578T breast
MCF7 breast = system: MCF7 breast
SN12C renal = system: SN12C renal
A498 renal = system: A498 renal
MALME-3M melanoma = system: MALME-3M melanoma
ACHN renal = system: ACHN renal
RPMI-8226 leukemia = system: RPMI-8226 leukemia
BT-549 breast = system: BT-549 breast
NCI-H522 lung = system: NCI-H522 lung
HOP-62 NSCLC = system: HOP-62 NSCLC
HT29 colon = system: HT29 colon
SW-620 colon = system: SW-620 colon
COLO 205 colon = system: COLO 205 colon
LOX IMVI melanoma = system: LOX IMVI melanoma
NCI-H23 lung = system: NCI-H23 lung

Cc1ccc(/C=C2\COc3ccc(O)c(O)c3C2=O)cc1
TGI (DU-145 prostate): 1710 nM
GI50 (HCC-2998 colon): 1690 nM
TGI (HCC-2998 colon): 3280 nM
GI50 (U251 CNS): 922 nM
TGI (U251 CNS): 2290 nM
GI50 (786-0 renal): 555 nM
TGI (786-0 renal): 2490 nM
GI50 (SF-268 CNS): 1120 nM
TGI (SF-268 CNS): 3350 nM
GI50 (SF-295 CNS): 2040 nM
TGI (SF-295 CNS): 9640 nM
GI50 (EKVX NSCLC): 1280 nM
TGI (EKVX NSCLC): 4140 nM
GI50 (NCI-H460 lung): 1840 nM
TGI (NCI-H460 lung): 5000 nM
GI50 (T-47D breast): 951 nM
TGI (T-47D breast): 6940 nM
GI50 (KM12 colon): 838 nM
TGI (KM12 colon): 3000 nM
GI50 (SK-OV-3 ovarian): 395 nM
TGI (SK-OV-3 ovarian): 35100 nM
GI50 (CCRF-CEM leukemia): 265 nM
TGI (CCRF-CEM leukemia): 1480 nM
GI50 (PC-3 prostate): 505 nM
TGI (PC-3 prostate): 3740 nM
GI50 (UACC-62 melanoma): 407 nM
TGI (UACC-62 melanoma): 1650 nM
GI50 (HS 578T breast): 362 nM
TGI (HS 578T breast): > 26400 nM
GI50 (MCF7 breast): 375 nM
TGI (MCF7 breast): 9760 nM
GI50 (SN12C renal): 370 nM
TGI (SN12C renal): 2330 nM
GI50 (A498 renal): 249 nM
TGI (A498 renal): 1950 nM
GI50 (MALME-3M melanoma): 909 nM
TGI (MALME-3M melanoma): 3150 nM
GI50 (ACHN renal): 639 nM
TGI (ACHN renal): 2000 nM
GI50 (RPMI-8226 leukemia): 252 nM
TGI (RPMI-8226 leukemia): 818 nM
GI50 (BT-549 breast): 585 nM
TGI (BT-549 breast): 2640 nM
GI50 (NCI-H522 lung): 185 nM
TGI (NCI-H522 lung): 461 nM
GI50 (HOP-62 NSCLC): 1440 nM
TGI (HOP-62 NSCLC): 6640 nM
GI50 (HT29 colon): 2780 nM
TGI (HT29 colon): 9050 nM
GI50 (SW-620 colon): 854 nM
TGI (SW-620 colon): 3110 nM
GI50 (COLO 205 colon): 2000 nM
TGI (COLO 205 colon): 3950 nM
GI50 (LOX IMVI melanoma): 329 nM
TGI (LOX IMVI melanoma): 1340 nM
GI50 (NCI-H23 lung): 1450 nM
TGI (NCI-H23 lung): 3800 nM
